Source: patent US8114880B2, “Piperidine or piperazine substituted tetrahydro-naphthalene-1-carboxylic acid MTP inhibiting compounds” (Janssen Pharmaceutica N.V., priority 2006, dated 2012)

Columns and labels:
HepG2 cells = assay: Quantification of the secretion of ApoB; type: cell-based; conditions: Homo sapiens, HepG2, 24 h, 24 hours of incubation, pIC50 = -log IC50
In short: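 At 70% confluency, HepG2 cells received compound (0.4% DMSO final) for 24 h. Secreted apoB in cleared medium was immunoprecipitated with sheep anti-apoB then rabbit anti-sheep antibody (24 h each at 8° C.), and pellet radioactivity was counted by scintillation. IC50 values were expressed as pIC50.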

MTP = MTP (Homo sapiens, UniProt P55157); assay: MTP assay (triglyceride transfer from donor to acceptor vesicles); type: biochemical; conditions: MTP activity, percent triglyceride transfer from donor to acceptor vesicles, 37° C.
MTP, sequence (P55157 19-894, species assumed): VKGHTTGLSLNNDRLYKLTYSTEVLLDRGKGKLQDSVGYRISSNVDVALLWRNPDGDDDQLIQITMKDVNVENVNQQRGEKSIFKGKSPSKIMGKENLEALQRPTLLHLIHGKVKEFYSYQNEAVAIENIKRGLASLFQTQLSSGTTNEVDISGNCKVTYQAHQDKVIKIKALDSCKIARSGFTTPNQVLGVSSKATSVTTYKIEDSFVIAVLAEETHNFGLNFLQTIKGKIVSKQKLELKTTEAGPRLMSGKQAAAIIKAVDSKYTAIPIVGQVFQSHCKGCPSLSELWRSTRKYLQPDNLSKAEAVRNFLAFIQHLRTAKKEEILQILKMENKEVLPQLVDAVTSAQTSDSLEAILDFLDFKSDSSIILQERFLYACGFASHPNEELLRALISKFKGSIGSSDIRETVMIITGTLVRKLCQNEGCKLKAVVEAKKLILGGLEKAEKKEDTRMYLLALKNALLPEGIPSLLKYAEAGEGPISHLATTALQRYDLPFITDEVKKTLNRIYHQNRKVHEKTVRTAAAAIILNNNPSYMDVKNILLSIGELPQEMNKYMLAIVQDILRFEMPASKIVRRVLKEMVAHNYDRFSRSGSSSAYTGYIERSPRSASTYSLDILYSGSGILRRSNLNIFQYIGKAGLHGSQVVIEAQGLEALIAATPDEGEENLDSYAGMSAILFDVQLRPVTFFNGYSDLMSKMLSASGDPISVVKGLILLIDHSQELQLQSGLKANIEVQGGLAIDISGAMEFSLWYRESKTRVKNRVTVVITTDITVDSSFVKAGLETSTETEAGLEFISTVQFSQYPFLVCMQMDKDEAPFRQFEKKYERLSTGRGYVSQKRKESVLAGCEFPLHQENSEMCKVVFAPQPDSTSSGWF
MTP, sequence (P07237 18-508 partner, species assumed): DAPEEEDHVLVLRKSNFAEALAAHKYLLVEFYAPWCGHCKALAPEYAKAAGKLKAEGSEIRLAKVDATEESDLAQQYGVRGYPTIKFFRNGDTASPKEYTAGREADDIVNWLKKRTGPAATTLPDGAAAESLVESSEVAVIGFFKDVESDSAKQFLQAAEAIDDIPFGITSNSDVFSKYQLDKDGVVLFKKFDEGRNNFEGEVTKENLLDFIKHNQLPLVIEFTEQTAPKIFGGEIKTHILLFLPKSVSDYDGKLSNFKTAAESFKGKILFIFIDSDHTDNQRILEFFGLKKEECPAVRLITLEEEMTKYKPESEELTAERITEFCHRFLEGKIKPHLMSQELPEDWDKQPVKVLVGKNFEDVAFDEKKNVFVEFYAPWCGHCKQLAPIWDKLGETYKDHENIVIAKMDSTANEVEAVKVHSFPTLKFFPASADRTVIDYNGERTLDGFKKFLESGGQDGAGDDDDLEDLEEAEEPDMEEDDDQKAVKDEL
In short: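 Radiolabelled triglyceride transfer from donor vesicles (phosphatidylcholine, 7.5 mol % cardiolipin, 0.25 mol % glycerol tri[1-^14C]-oleate) to phosphatidylcholine acceptor vesicles with BSA, pH 7.5 Tris buffer; compounds in DMSO (0.13% final), 5 min preincubation at 37° C before MTP addition. Donor vesicles removed on DEAE-52; acceptor-supernatant ^14C counts give percent transfer.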

| IC50 (HepG2 cells) [nM] | IC50 (MTP) [nM] | Structure (SMILES) |
| --- | --- | --- |
| 95.7 | 6.1 | CCOC(=O)NCCCC[C@H](NC(=O)[C@@]1(c2ccccc2)CC[C@H](C(=O)N2CCC(NC(=O)c3ccccc3OC)CC2)c2ccccc21)C(=O)OCC [Co. No. 211] |
| 22.3 | 4.34 | CCOC(=O)NCCCC[C@H](NC(=O)[C@@]1(c2ccccc2)CC[C@H](C(=O)N2CCC(NC(=O)c3ccccc3OC)CC2)c2ccccc21)C(=O)OC(C)C [Co. No. 212] |
| 5.9 | 3.1 | COc1ccccc1C(=O)NC1CCN(C(=O)[C@H]2CC[C@@](C(=O)N[C@@H](CCCCNC(=O)OC(C)C)C(=O)OC(C)C)(c3ccccc3)c3ccccc32)CC1 [Co. No. 213] |
| > 1000 | 26.8 | COC(=O)[C@H](CCCCNC(=O)[C@@]1(c2ccccc2)CC[C@H](C(=O)N2CCC(NC(=O)c3ccccc3OC)CC2)c2ccccc21)NC(C)=O [Co. No. 214] |
| 18.4 | 2.92 | COC(=O)[C@@H](CCCCNC(=O)OC(C)(C)C)NC(=O)[C@@]1(c2ccccc2)CC[C@H](C(=O)N2CCC(NC(=O)c3ccccc3OC)CC2)c2ccccc21 [Co. No. 215] |
| 31.1 | 6.7 | CCOC(=O)[C@@H](CCCCNC(=O)OC(C)(C)C)NC(=O)[C@@]1(c2ccccc2)CC[C@H](C(=O)N2CCC(NC(=O)c3ccccc3OC)CC2)c2ccccc21 [Co. No. 216] |
| 256 | 8.22 | CCOC(=O)NCCCC[C@@H](NC(=O)[C@@]1(c2ccccc2)CC[C@H](C(=O)N2CCC(NC(=O)c3ccccc3OC)CC2)c2ccccc21)C(=O)OCC [Co. No. 217] |
| 65 | 2.41 | CCOC(=O)NCCCC[C@@H](NC(=O)[C@@]1(c2ccccc2)CC[C@H](C(=O)N2CCC(NC(=O)c3ccccc3OC)CC2)c2ccccc21)C(=O)OC(C)C [Co. No. 218] |
| 300 | 4.24 | COC(=O)[C@@H](CCCCNC(=O)OC(C)C)NC(=O)[C@@]1(c2ccccc2)CC[C@H](C(=O)N2CCC(NC(=O)c3ccccc3OC)CC2)c2ccccc21 [Co. No. 219] |
| 21.1 | 1.86 | CCOC(=O)[C@@H](CCCCNC(=O)OC(C)C)NC(=O)[C@@]1(c2ccccc2)CC[C@H](C(=O)N2CCC(NC(=O)c3ccccc3OC)CC2)c2ccccc21 [Co. No. 220] |
| 135 | 1.78 | COc1ccccc1C(=O)NC1CCN(C(=O)[C@H]2CC[C@@](C(=O)N[C@H](CCCCNC(=O)OC(C)C)C(=O)OC(C)C)(c3ccccc3)c3ccccc32)CC1 [Co. No. 221] |
| > 1000 | 45.8 | CC(C)OC(=O)CCNC(=O)[C@@]1(c2ccccc2)CC[C@H](C(=O)N2CCC(NC(=O)c3cccn(C)c3=O)CC2)c2ccccc21 [Co. No. 222] |
| > 1000 | > 100 | CCOC(=O)CCCNC(=O)[C@@]1(c2ccccc2)CC[C@H](C(=O)N2CCC(NC(=O)c3cccn(C)c3=O)CC2)c2ccccc21 [Co. No. 225] |
| > 1000 | 111 | Cn1cccc(C(=O)NC2CCN(C(=O)[C@H]3CC[C@@](C(=O)NCCCC(=O)OC(C)(C)C)(c4ccccc4)c4ccccc43)CC2)c1=O [Co. No. 226] |
| > 1000 | 7.57 | CC(C)OC(=O)CCCCCNC(=O)[C@@]1(c2ccccc2)CC[C@H](C(=O)N2CCC(NC(=O)c3cccn(C)c3=O)CC2)c2ccccc21 [Co. No. 229] |
| > 1000 | > 100 | CCOC(=O)[C@H](CCCCNC(=O)OC(C)(C)C)NC(=O)[C@@]1(c2ccccc2)CC[C@H](C(=O)N2CCC(NC(=O)c3cccn(C)c3=O)CC2)c2ccccc21 [Co. No. 231] |
| > 1000 | 117 | CCOC(=O)NCCCC[C@H](NC(=O)[C@@]1(c2ccccc2)CC[C@H](C(=O)N2CCC(NC(=O)c3cccn(C)c3=O)CC2)c2ccccc21)C(=O)OC(C)C [Co. No. 233] |
| > 1000 | 109 | CC(C)OC(=O)NCCCC[C@H](NC(=O)[C@@]1(c2ccccc2)CC[C@H](C(=O)N2CCC(NC(=O)c3cccn(C)c3=O)CC2)c2ccccc21)C(=O)OC(C)C [Co. No. 235] |
